In US11040947B2, “Substituted quinazolines as matrix metalloproteinase-9 hemopexin domain inhibitors” (The Research Foundation for The State University of New York, priority 2017, dated 2021):

How the values were obtained:
HT1080 cells [1] = experiment: chorioallantoic membrane (CAM) assay, angiogenesis; assay type: in vivo, chicken embryo; conditions: 100 μM stock solution (final estimated 0.5 μM), 4-day incubation, vs DMSO and 1f
Experimental: A CAM assay was carried out to evaluate angiogenic and invasive potential of HT1080 cells after treatment with 3c. […] After a 4-day incubation, neovascularization was imaged and quantified.

[2] = test system: EGFR^Tyr1068, AKT^Ser473, Erk1/2^Thr202/Tyr204 phosphorylation; experiment: phosphorylation of EGFR and downstream targets in HT1080 cells; assay type: cell-based, Human; conditions: 50 μM overnight
[3] = target: T1, MMP-9 interaction with α4/β1 integrin (Homo sapiens, UniProt P14780); experiment: co-immunoprecipitation of endogenous integrin with MMP-9 in HT1080 cells; assay type: cell-based; conditions: 50 μM
T1 construct: expressed in transfected cells; host or cells: HT1080 cells (MMP-9 transfected; integrin endogenous)
Experimental: (§1) HT1080 cells transiently co-transfected with tagged MMP-9 cDNAs were prepared as described above.

[4] = target: T2, APMA-activated recombinant proMMP-9 (Homo sapiens, UniProt P14780); experiment: MMP-9 catalytic activity with fluorogenic peptide; assay type: biochemical; conditions: 10 μM fluorogenic peptide, monitored over 2 hours
T2 construct: made in house
Experimental: Recombinant proMMP-9 protein was purified and incubated overnight in a 37° C. water bath in TNC buffer+1 mM APMA to artificially activate the protein.

[5] = test system: proMMP-2-mediated migration of COS-1 cells; experiment: two-dimensional dot migration assay, COS-1 cells stably expressing proMMP-2; assay type: cell-based
Experimental: (§2) To test whether compound 3c is specific for inhibiting only proMMP9-mediated migration, a two-dimensional dot migration assay was performed using COS-1 cells engineered to stably express vector control pQCXIP, proMMP-2, proMMP-9, or proMMP-14 cDNA vectors. An immunoblot was performed to confirm protein expression and proper localization of each MMP (MMP-2/-9 are secreted while MMP-14 is membrane bound).

[6] = test system: Src^Tyr418, FAK^Tyr576/577, PAX^Tyr118 phosphorylation; experiment: phosphorylation of Src and downstream targets in HT1080 cells; assay type: cell-based, Human; conditions: 50 μM
Experimental: as §1

[7] = test system: FAK and PAX adhesion junctions in HT1080 cells; experiment: focal adhesion complexes, immunofluorescence in HT1080 cells; assay type: cell-based, Human
[8] = test system: proMMP9-mediated migration of COS-1 cells; experiment: two-dimensional dot migration assay, COS-1 cells stably expressing proMMP-9; assay type: cell-based
Experimental: as §2

HT1080 cells [9] = experiment: cell adhesion to collagen or fibronectin coated plate; assay type: cell-based, Human; conditions: 37° C. 30 min
Experimental: A 96-well plate was coated with a thin layer of either collagen or fibronectin (5 μg/ml in PBS) substrate before use. HT1080 cells were then seeded onto wells and incubated at 37° C. for 30 min in the presence of various inhibitors. Wells were washed and cells were fixed in 4% paraformaldehyde and stained with DAPI. Images of each 96-well were microscopically captured and counted for the number of cells still adherent to the coated surface using automated computer software.

[10] = test system: MMP-9 at the cell surface of HT1080 cells; experiment: MMP-9 cell surface localization, immunofluorescence in HT1080 cells; assay type: cell-based, Human
Experimental: HT1080 cells were fixed in 4% paraformaldehyde then subsequently incubated with anti-MMP-9 in addition to anti-α4 and/or β1 integrin antibodies to monitor relative levels of localization of these proteins at the cell surface. The cells were counterstained with DAPI nuclear dye.

[11] = test system: proMMP9-mediated migration of COS-1 cells; experiment: two-dimensional collagen dot migration assay, COS-1 cells overexpressing proMMP-9; assay type: cell-based; conditions: for inhibition at 50 µM: Chlorocebus aethiops
Experimental: This assay was initially used to test the efficacy of analogs at a single concentration, 50 μM.
Cells were mixed with type I collagen solution with or without compound, dotted onto a 96-well plate, and allowed to migrate for 18 hours. They were then fixed, stained and scored for extent of migration.

[12] = target: T3, MMP-9 association with CD44 and EGFR (Homo sapiens, UniProt P14780); experiment: co-immunoprecipitation of endogenous CD44 and EGFR with MMP-9 in HT1080 cells; assay type: cell-based; conditions: 50 μM overnight
T3 construct: expressed in transfected cells; host or cells: HT1080 human fibrosarcoma cells (MMP-9 transfected; CD44 and EGFR endogenous)

[13] = test system: proMMP-14-mediated migration of COS-1 cells; experiment: two-dimensional dot migration assay, COS-1 cells stably expressing proMMP-14; assay type: cell-based
Experimental: as §2

[14] = test system: HT1080 cells stably expressing GFP; experiment: chorioallantoic membrane (CAM) assay, invasion; assay type: in vivo, chicken embryo; conditions: 100 μM stock solution (final estimated 0.5 μM), vs DMSO or 1f
Experimental: HT1080 cells stably expressing GFP were mixed with a type I collagen solution (3 mg/mL) and seeded atop the CAM to ensure the cells localized to a specific area. […] The invasion of cancer cells through the epithelium and basement membrane of the upper CAM into connecting tissue was examined by hematoxylin and eosin staining in addition to fluorescence microscopy for GFP^+ cells.

proMMP-9 = target: T4, proMMP-9 (Homo sapiens, UniProt P14780); experiment: proMMP-9 tryptophan fluorescence blue shift binding assay; conditions: binding to proMMP-9, tryptophan fluorescence
T4 construct: Purified recombinant MMP-9 (50 nmol/L) or MMP-9/MMP-2PEX (50 nmol/L) was diluted in buffer
Experimental: A blue shift in proMMP-9 tryptophan fluorescence was monitored to determine the binding affinity of all compounds. Binding of a test compound to MMP-9 was assayed by observing the change of tryptophan emission upon binding. Purified recombinant MMP-9 (50 nmol/L) or MMP-9/MMP-2PEX (50 nmol/L) was diluted in buffer (50 mmol/L Tris-HCl, 60 mmol/L KCl, and 0.05% Tween 20, pH 7.4) in the presence or absence of the test compound. As a control for protein stability and loss, an analogous buffer solution was added to the protein. The protein sample was excited at 280 nm and emission scans were collected from 290 to 400 nm, using slit widths of 0.3 nm on a QM 4/200SE spectrofluorimeter with double excitation and emission monochromators. Three emission scans were collected and averaged at each concentration. The Kd was determined using the Prism software package (GraphPad V5) to fit the data to Equation (Δ). λmax=(λmax^∞×[2])/(Kd+[2]) (A) in which λmax is the wavelength at which maximal fluorescence of the protein was observed.

[15] = test system: COS-1 cells stably expressing vector control or proMMP-9; experiment: acute cytotoxicity in COS-1 cells; assay type: cell-based; conditions: 100 nM staurosporine (positive control), 24 hours
Experimental: Compound 3c was evaluated for acute cytotoxicity. COS-1 cells stably expressing either vector control or proMMP-9 cDNA were treated with 50 μM 3c for 24 hours. As negative and positive controls, cells were treated with DMSO alone or 100 nM staurosporine (STS), an apoptosis inducer, respectively. […] A non-statistically significant 8% decrease in cell growth occurred after treatment with 50 μM of compound 3c. These experiments were repeated in endogenous MMP-9 expressing HT1080 fibrosarcoma cells, which were analyzed for chronic toxicity (cells were re-treated every three days for a total of nine days).

T4 sequence (P14780 20-707 limits assumed): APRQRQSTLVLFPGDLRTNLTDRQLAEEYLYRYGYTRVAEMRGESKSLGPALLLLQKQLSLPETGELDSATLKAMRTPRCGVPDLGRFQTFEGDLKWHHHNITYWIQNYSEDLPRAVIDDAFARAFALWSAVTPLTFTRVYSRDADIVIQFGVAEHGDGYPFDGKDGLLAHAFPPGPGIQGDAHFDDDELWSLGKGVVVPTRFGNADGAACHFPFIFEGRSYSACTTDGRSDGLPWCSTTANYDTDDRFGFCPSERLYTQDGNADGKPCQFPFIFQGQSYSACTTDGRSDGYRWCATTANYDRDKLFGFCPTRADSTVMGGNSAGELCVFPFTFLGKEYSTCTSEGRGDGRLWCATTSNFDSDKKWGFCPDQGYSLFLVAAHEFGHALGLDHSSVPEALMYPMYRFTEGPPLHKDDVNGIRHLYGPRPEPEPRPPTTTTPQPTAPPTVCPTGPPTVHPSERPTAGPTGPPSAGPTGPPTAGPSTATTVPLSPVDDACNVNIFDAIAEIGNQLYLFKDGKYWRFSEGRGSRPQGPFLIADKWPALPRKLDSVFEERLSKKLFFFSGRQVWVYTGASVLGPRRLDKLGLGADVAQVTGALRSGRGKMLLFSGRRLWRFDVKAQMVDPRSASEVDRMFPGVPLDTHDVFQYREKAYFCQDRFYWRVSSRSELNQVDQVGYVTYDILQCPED
T2 sequence (P14780 107-707 limits assumed): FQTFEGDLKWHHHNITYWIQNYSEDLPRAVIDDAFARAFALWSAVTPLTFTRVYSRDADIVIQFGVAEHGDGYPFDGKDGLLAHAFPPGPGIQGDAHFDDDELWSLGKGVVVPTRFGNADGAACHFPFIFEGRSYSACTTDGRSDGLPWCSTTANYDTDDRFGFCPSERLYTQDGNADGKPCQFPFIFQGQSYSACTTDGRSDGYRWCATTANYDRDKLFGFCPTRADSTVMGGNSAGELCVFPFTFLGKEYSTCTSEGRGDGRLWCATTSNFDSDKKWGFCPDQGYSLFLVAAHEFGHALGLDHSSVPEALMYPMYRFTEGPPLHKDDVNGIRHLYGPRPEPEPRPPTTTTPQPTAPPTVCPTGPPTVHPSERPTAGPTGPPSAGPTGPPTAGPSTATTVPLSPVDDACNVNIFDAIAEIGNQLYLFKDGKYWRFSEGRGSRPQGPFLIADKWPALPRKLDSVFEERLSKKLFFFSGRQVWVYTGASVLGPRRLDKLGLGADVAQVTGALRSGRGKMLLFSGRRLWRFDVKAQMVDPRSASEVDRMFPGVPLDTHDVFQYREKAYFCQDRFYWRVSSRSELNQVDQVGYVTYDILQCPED
T1 sequence (P14780 94-707): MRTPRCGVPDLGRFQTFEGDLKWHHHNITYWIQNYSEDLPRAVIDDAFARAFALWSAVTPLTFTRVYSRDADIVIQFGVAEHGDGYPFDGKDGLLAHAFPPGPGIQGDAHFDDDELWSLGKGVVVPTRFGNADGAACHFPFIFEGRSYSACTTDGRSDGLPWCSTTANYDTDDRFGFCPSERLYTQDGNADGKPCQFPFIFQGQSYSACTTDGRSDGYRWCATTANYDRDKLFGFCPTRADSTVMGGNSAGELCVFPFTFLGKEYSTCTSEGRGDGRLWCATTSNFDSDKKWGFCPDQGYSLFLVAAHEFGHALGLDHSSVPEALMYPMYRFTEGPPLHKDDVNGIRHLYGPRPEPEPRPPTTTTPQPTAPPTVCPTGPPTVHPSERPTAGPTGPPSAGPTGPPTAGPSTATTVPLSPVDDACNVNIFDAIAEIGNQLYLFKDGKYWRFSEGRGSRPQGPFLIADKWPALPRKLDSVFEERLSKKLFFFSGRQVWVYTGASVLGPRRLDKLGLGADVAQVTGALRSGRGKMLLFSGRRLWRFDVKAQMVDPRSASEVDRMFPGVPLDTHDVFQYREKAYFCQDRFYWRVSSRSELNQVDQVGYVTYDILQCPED
T3 sequence (P14780 94-707): as above

Row | SMILES | Kd (proMMP-9) [µM] | melting point | inhibition at 50 µM ([11]; 50 μM, 18 hours) [%] | other results
1 | CCCc1cc(=O)nc(SCC(=O)Nc2ccc(OC(F)F)cc2)[nH]1 [Compound 1a, N-(4-Difluoromethoxyphenyl)-2-(4-oxo-6-propyl-1,4-dihydropyrimidin-2-ylthio)acetamide] |  |  |  | angiogenic potential of HT1080 cells (neovascularization) (HT1080 cells [1]): significantly reduced the angiogenic potential of HT1080 cells; phosphorylation of EGFR^Tyr1068 and downstream targets AKT^Ser473 and Erk1/2^Thr202/Tyr204 [2]: reduced phosphorylation; endogenous α4β1 integrin co-immunoprecipitation [3]: reduced endogenous α4β3 integrin co-immunoprecipitation; inhibition of MMP-9 catalytic activity [4]: No inhibition of the catalytic activity was observed; inhibition of proMMP-2-mediated migration [5]: only inhibited proMMP9-mediated migration; Src^Tyr418 phosphorylation and phosphorylation of FAK^Tyr576/577 and PAX^Tyr118 [6]: reduced Src^Tyr418 phosphorylation; formation of FAK and PAX adhesion junctions ([7]; 50 μM overnight): A decrease in the formation of FAK and PAX adhesion junctions; inhibition of proMMP-9-mediated migration [8]: only inhibited proMMP9-mediated migration; cellular adhesion (HT1080 cells [9]): inhibited cellular adhesion; localization of MMP-9 on the cell surface [10]: loss of MMP-9 from the cell surface; inhibitor effectiveness at concentrations above 50 μM ([11]; above 50 μM): did not increase inhibitor effectiveness; endogenous CD44 and EGFR co-immunoprecipitation [12]: reduced endogenous CD44 and EGFR co-immunoprecipitation; inhibition of proMMP-14-mediated migration [13]: only inhibited proMMP9-mediated migration; invasion of CAM tissue [14]: reduced invasion of CAM tissue
2 | CCCc1cc(=O)nc(SCC(=O)Nc2ccccc2)[nH]1 [Compound 1b, 2-(4-Oxo-6-propyl-1,4-dihydropyrimidin-2-ylthio)-N-phenylacetamide] | 4.5 ± 0.6 | 170 °C (dec.) | 12 ± 3 | 
3 | CCCc1cc(=O)nc(SCC(=O)Nc2ccc(F)cc2)[nH]1 [Compound 1c, N-(4-Fluorophenyl)-2-(4-oxo-6-propyl-1,4-dihydropyrimidin-2-ylthio)acetamide] | 3.8 ± 0.6 | 191 to 194 °C | 29 ± 4 | 
4 | CCCc1cc(=O)nc(SCC(=O)Nc2nc3ccccc3[nH]2)[nH]1 [Compound 1d, N-(1H-benzo[d]imidazol-2-yl)-2-(4-oxo-6-propyl-1,4-dihydropyrimidin-2-ylthio)acetamide] | 1.2 ± 0.2 | 217 °C (dec.) | 61 ± 2 | 
5 | CCCc1cc(=O)nc(SCC(=O)N(C)c2ccccc2)[nH]1 [Compound 1f, 2-(4-Oxo-6-propyl-1,4-dihydropyrimidin-2-ylthio)-N(methyl)-phenylacetamide, reference compound] |  |  |  | cellular adhesion (HT1080 cells [9]): no affect on cell adhesion; localization of MMP-9 on the cell surface [10]: did not disrupt the localization of MMP-9 on the cell surface; % Inhibition of proMMP9-Mediated Migration at 50 μM ([11]; 50 μM, 18 hours): 2 ± 6%
6 | CCCc1cc(=O)nc(SCCCC(=O)Nc2ccc(OC(F)F)cc2)[nH]1 [Compound 2a, N-(4-Difluoromethoxyphenyl)-4-(4-oxo-6-propyl-1,4-dihydropyrimidin-2-ylthio)butanamide] | 1 ± 0.2 |  | 63 ± 4 | 
7 | CCCc1cc(=O)nc(SCCCC(=O)Nc2ccc(F)cc2)[nH]1 [Compound 2c, N-(4-Fluorophenyl)-4-(4-oxo-6-propyl-1,4-dihydropyrimidin-2-ylthio)butanamide] | 0.91 ± 0.1 | 180 to 182 °C | 68 ± 3 | 
8 | O=C(CCCSc1nc2c(c(=O)[nH]1)CCCC2)Nc1ccc(OC(F)F)cc1 [Compound 3a, N-(4-Difluoromethoxyphenyl)-4-(4-oxo-3,4,5,6,7,8-hexahydroquinazolin-2-ylthio)butanamide] | 0.6 ± 0.1 | 197 to 198 °C | 74 ± 2 | 
9 | O=C(CCCSc1nc2c(c(=O)[nH]1)CCCC2)Nc1ccccc1 [Compound 3b, 4-(4-Oxo-3,4,5,6,7,8-hexahydroquinazolin-2-ylthio)-N-phenylbutanamide] | 0.5 ± 0.1 |  | 76 ± 1 | 
10 | O=C(CCCSc1nc2c(c(=O)[nH]1)CCCC2)Nc1nc2ccccc2[nH]1 [Compound 3d, N-(1H-Benzo[d]imidazol-2-yl)-4-(4-oxo-3,4,5,6,7,8-hexahydroquinazolin-2-ylthio)butanamide] | 0.5 ± 0.2 | > 230 °C | 77 ± 2 | 
11 | O=C(CCCSc1nc2ccccc2c(=O)[nH]1)Nc1ccc(OC(F)F)cc1 [Compound 4a, N-(4-(Difluoromethoxy)phenyl)-4-(4-oxo-3,4-dihydroquinazolin-2-ylthio)butanamide] | 0.5 ± 0.1 | 210 to 211 °C | 78 ± 3 | 
12 | O=C(CCCSc1nc2ccccc2c(=O)[nH]1)Nc1ccccc1 [Compound 4b, 4-(4-Oxo-3,4-dihydroquinazolin-2-ylthio)-N-phenylbutanamide] | 0.8 ± 0.1 |  | 64 ± 4 | 
13 | O=C(CCCSc1nc2ccccc2c(=O)[nH]1)Nc1ccc(F)cc1 [Compound 4c, N-(4-Fluorophenyl)-4-((4-oxo-3,4-dihydroquinazolin-2-yl)thio)butanamide] | 0.64 ± 0.06 | 216 to 217 °C | 73 ± 2 | 
14 | O=C(CCCSc1nc2ccccc2c(=O)[nH]1)Nc1nc2ccccc2[nH]1 [Compound 4d, N-(1H-Benzo[d]imidazol-2-yl)-4-(4-oxo-3,4-dihydroquinazolin-2-ylthio)butanamide] | 0.3 ± 0.1 | > 230 °C | 81 ± 3 | 
15 | CCCCCCNC(=O)CCCSc1nc2ccccc2c(=O)[nH]1 [Compound 4e, N-Hexyl-4-(4-oxo-3,4-dihydroquinazolin-2-ylthio)butanamide] | 0.9 ± 0.3 |  | 56 ± 1 | 
16 | CN[C@@H]1C[C@H]2O[C@@](C)([C@@H]1OC)n1c3ccccc3c3c4c(c5c6ccccc6n2c5c31)C(=O)NC4 [STS, staurosporine, reference compound] |  |  |  | cell death [15]: Significant cell death
17 | CNC(=O)[C@@H](NC(=O)[C@H](CC(C)C)[C@H](O)C(=O)NO)C(C)(C)C [marimastat, reference compound] |  |  |  | inhibition of MMP-9 catalytic activity [4]: no substrate cleavage was observed; formation of focal adhesion contact sites ([7]; 80 nM, p-FAK and p-PAX): did not prevent the formation of focal adhesion contact sites; cellular adhesion (HT1080 cells [9]): no observable effect on cell attachment
